Laboratory results taken from patent US12391672B2, “Solid forms comprising (S)-4-(4-(4-(((2-(2,6-dioxopiperidin-3-yl)-1-oxoisoindolin-4-yl)oxy)methyl)benzyl)piperazin-1-yl)-3-fluorobenzonitrile and salts thereof, and compositions comprising and methods of using the same” (Celgene Corporation, priority 2019, dated 2025).
“Also recorded” adds a separate entry of the source.

Assay: Solid state stability under accelerated storage conditions
Format: physicochemical
Procedure, shortened: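 Solid forms stored at 60 °C and 60 °C/75% RH (Form A 1 week, Form B 2 weeks); Form K held 14 d at 40 °C, 40 °C/75% RH, 60 °C, 60 °C/75% RH and light, versus refrigerated/ambient. Assessed by DSC/TGA, appearance, HPLC purity, chiral HPLC (S-isomer area %) and XRPD post-DVS.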

SMILES: N#Cc1ccc(N2CCN(Cc3ccc(COc4cccc5c4CN([C@H]4CCC(=O)NC4=O)C5=O)cc3)CC2)c(F)c1.O [Form K of a free base of Compound 1]
- Physical stability (DSC, PXRD, TGA) (14 d at 40° C., 40° C./75% RH, 60° C., 60° C./75% RH, light chamber): there does not appear to be any major change in the crystal form and water content
- physical and chemical stability (accelerated stability conditions): chemically and physically stable; also recorded: physically and chemically stable
- Solid state chiral stability (accelerated stability conditions, initial 97.1 area % S-isomer): no change in the chiral stability
- Solid state chemical stability (HPLC) (accelerated storage conditions, 14 d): no significant degradation was observed
- Solid state chemical stability (HPLC), light (exposed to light (1.2 million lux)): Minor degradation
